Data reported in US11445724B2, “Insecticidal compounds” (SYNGENTA PARTICIPATIONS AG, priority 2013, dated 2022).

Experiments:
Format in all cases: in vivo
[1] = system: Diabrotica balteata (Corn root worm); experiment: Diabrotica balteata (Corn root worm) larval mortality, artificial diet in 24-well MTP; conditions: 120 h, application rate 200 ppm (concentration in well 18 ppm), L2 larvae, larval mortality after 5 days
[2] = system: Myzus persicae (Green peach aphid); experiment: Myzus persicae (Green peach aphid) mortality, sprayed sunflower leaf discs; conditions: foliar, 144 h, 200 ppm spray on sunflower leaf discs, mixed ages, mortality 6 DAT
[3] = system: Myzus persicae (Green peach aphid); experiment: Myzus persicae (Green peach aphid) mortality, test compounds mixed with Sucrose solution under Parafilm; conditions: 120 h, 12.5 ppm in Sucrose solution, infested pea seedlings on Parafilm, mortality 5 days after infestation
[4] = system: Plutella xylostella (Diamond back moth); experiment: Plutella xylostella (Diamond back moth) larval mortality, artificial diet in 24-well MTP; conditions: 144 h, application rate 200 ppm (concentration in well 18 ppm), L2 larvae, larval mortality after 6 days
[5] = system: Spodoptera littoralis (Egyptian cotton leafworm); experiment: Spodoptera littoralis (Egyptian cotton leafworm) mortality, sprayed cotton leaf discs; conditions: foliar, 72 h, 200 ppm spray on cotton leaf discs, L1 larvae, mortality 3 DAT
[6] = system: Tetranychus urticae (Two-spotted spider mite); experiment: Tetranychus urticae (Two-spotted spider mite) mortality, sprayed bean leaf discs; conditions: foliar, 192 h, 200 ppm spray on bean leaf discs, mixed ages, egg, larval and adult mortality after 8 days
[7] = system: Thrips tabaci (Onion thrips); experiment: Thrips tabaci (Onion thrips) mortality, sprayed sunflower leaf discs; conditions: foliar, 168 h, 200 ppm spray on sunflower leaf discs, mixed ages, mortality after 7 days

Cc1ccc(C(=O)Nc2cccc(C(=O)Nc3c(Cl)cc(C(F)(C(F)(F)F)C(F)(F)F)cc3OC(F)F)c2F)cc1 [Compound 51]
≥ 80%: pest or weed control at 200 ppm [1] | pest or weed control at 200 ppm [2] | pest or weed control at 12.5 ppm [3] | pest or weed control at 200 ppm [4] | pest or weed control at 200 ppm [5] | pest or weed control at 200 ppm [6] | pest or weed control at 200 ppm [7]

Cc1cc(F)ccc1C(=O)Nc1cccc(C(=O)Nc2c(Cl)cc(C(F)(C(F)(F)F)C(F)(F)F)cc2OC(F)F)c1F [Compound 53]
≥ 80%: pest or weed control at 200 ppm [1] | pest or weed control at 200 ppm [2] | pest or weed control at 12.5 ppm [3] | pest or weed control at 200 ppm [4] | pest or weed control at 200 ppm [5] | pest or weed control at 200 ppm [6] | pest or weed control at 200 ppm [7]

COc1c(NC(=O)c2ccc(C(F)(F)F)cc2)cccc1C(=O)Nc1c(Br)cc(C(F)(C(F)(F)F)C(F)(F)F)cc1OC(F)F [Compound 54]
≥ 80%: pest or weed control at 200 ppm [1] | pest or weed control at 200 ppm [2] | pest or weed control at 12.5 ppm [3] | pest or weed control at 200 ppm [4] | pest or weed control at 200 ppm [5] | pest or weed control at 200 ppm [6] | pest or weed control at 200 ppm [7]

O=C(Nc1cccc(C(=O)Nc2c(Cl)cc(C(F)(C(F)(F)F)C(F)(F)F)cc2OC(F)F)c1F)c1ccc([N+](=O)[O-])cc1Cl [Compound 57]
≥ 80%: pest or weed control at 200 ppm [1] | pest or weed control at 200 ppm [2] | pest or weed control at 12.5 ppm [3] | pest or weed control at 200 ppm [4] | pest or weed control at 200 ppm [5] | pest or weed control at 200 ppm [6] | pest or weed control at 200 ppm [7]

O=C(Nc1cccc(C(=O)Nc2c(Cl)cc(C(F)(C(F)(F)F)C(F)(F)F)cc2OC(F)F)c1F)c1ccc(OC(F)(F)F)cc1 [Compound 60]
≥ 80%: pest or weed control at 200 ppm [1] | pest or weed control at 200 ppm [2] | pest or weed control at 12.5 ppm [3] | pest or weed control at 200 ppm [4] | pest or weed control at 200 ppm [5] | pest or weed control at 200 ppm [6] | pest or weed control at 200 ppm [7]

COc1c(NC(=O)c2ccc(F)cc2)cccc1C(=O)Nc1c(Br)cc(C(F)(C(F)(F)F)C(F)(F)F)cc1OC(F)F [Compound 61]
≥ 80%: pest or weed control at 200 ppm [1] | pest or weed control at 200 ppm [2] | pest or weed control at 12.5 ppm [3] | pest or weed control at 200 ppm [4] | pest or weed control at 200 ppm [5] | pest or weed control at 200 ppm [6] | pest or weed control at 200 ppm [7]

O=C(Nc1cccc(C(=O)Nc2c(Cl)cc(C(F)(C(F)(F)F)C(F)(F)F)cc2OC(F)F)c1F)c1ccc(C(F)(F)F)cc1 [Compound 64]
≥ 80%: pest or weed control at 200 ppm [1] | pest or weed control at 200 ppm [2] | pest or weed control at 12.5 ppm [3] | pest or weed control at 200 ppm [4] | pest or weed control at 200 ppm [5] | pest or weed control at 200 ppm [6] | pest or weed control at 200 ppm [7]

COc1c(NC(=O)c2ccc(F)cc2Cl)cccc1C(=O)Nc1c(Br)cc(C(F)(C(F)(F)F)C(F)(F)F)cc1OC(F)F [Compound 66]
≥ 80%: pest or weed control at 200 ppm [1] | pest or weed control at 200 ppm [2] | pest or weed control at 12.5 ppm [3] | pest or weed control at 200 ppm [4] | pest or weed control at 200 ppm [5] | pest or weed control at 200 ppm [6] | pest or weed control at 200 ppm [7]

O=C(Nc1cccc(C(=O)Nc2c(Cl)cc(C(F)(C(F)(F)F)C(F)(F)F)cc2OC(F)F)c1F)c1ccccc1 [Compound 68]
≥ 80%: pest or weed control at 200 ppm [1] | pest or weed control at 200 ppm [2] | pest or weed control at 12.5 ppm [3] | pest or weed control at 200 ppm [4] | pest or weed control at 200 ppm [5] | pest or weed control at 200 ppm [6] | pest or weed control at 200 ppm [7]

O=C(Nc1cccc(C(=O)Nc2c(Cl)cc(C(F)(C(F)(F)F)C(F)(F)F)cc2OC(F)F)c1F)c1ccc(F)cc1 [Compound 70]
≥ 80%: pest or weed control at 200 ppm [1] | pest or weed control at 200 ppm [2] | pest or weed control at 12.5 ppm [3] | pest or weed control at 200 ppm [4] | pest or weed control at 200 ppm [5] | pest or weed control at 200 ppm [6] | pest or weed control at 200 ppm [7]

O=C(Nc1cccc(C(=O)Nc2c(Cl)cc(C(F)(C(F)(F)F)C(F)(F)F)cc2OC(F)F)c1F)c1cccc(F)c1F [Compound 76]
≥ 80%: pest or weed control at 200 ppm [1] | pest or weed control at 200 ppm [2] | pest or weed control at 12.5 ppm [3] | pest or weed control at 200 ppm [4] | pest or weed control at 200 ppm [5] | pest or weed control at 200 ppm [6] | pest or weed control at 200 ppm [7]

O=C(Nc1cccc(C(=O)Nc2c(Cl)cc(C(F)(C(F)(F)F)C(F)(F)F)cc2OC(F)F)c1F)c1ccc(F)cc1F [Compound 78]
≥ 80%: pest or weed control at 200 ppm [1] | pest or weed control at 200 ppm [2] | pest or weed control at 12.5 ppm [3] | pest or weed control at 200 ppm [4] | pest or weed control at 200 ppm [5] | pest or weed control at 200 ppm [6] | pest or weed control at 200 ppm [7]

COc1c(NC(=O)c2ccc([N+](=O)[O-])cc2)cccc1C(=O)Nc1c(Cl)cc(C(F)(C(F)(F)F)C(F)(F)F)cc1OC(F)F [Compound 81]
≥ 80%: pest or weed control at 200 ppm [1] | pest or weed control at 200 ppm [2] | pest or weed control at 12.5 ppm [3] | pest or weed control at 200 ppm [4] | pest or weed control at 200 ppm [5] | pest or weed control at 200 ppm [6] | pest or weed control at 200 ppm [7]

O=C(Nc1cccc(C(=O)Nc2c(Br)cc(C(F)(C(F)(F)F)C(F)(F)F)cc2OC(F)F)c1F)c1ccccc1F [Compound 83]
≥ 80%: pest or weed control at 200 ppm [1] | pest or weed control at 200 ppm [2] | pest or weed control at 12.5 ppm [3] | pest or weed control at 200 ppm [4] | pest or weed control at 200 ppm [5] | pest or weed control at 200 ppm [6] | pest or weed control at 200 ppm [7]

COc1c(NC(=O)c2ccc(F)cc2C)cccc1C(=O)Nc1c(Cl)cc(C(F)(C(F)(F)F)C(F)(F)F)cc1OC(F)F [Compound 84]
≥ 80%: pest or weed control at 200 ppm [1] | pest or weed control at 200 ppm [2] | pest or weed control at 12.5 ppm [3] | pest or weed control at 200 ppm [4] | pest or weed control at 200 ppm [5] | pest or weed control at 200 ppm [6] | pest or weed control at 200 ppm [7]

COc1c(NC(=O)c2ccc([N+](=O)[O-])cc2Cl)cccc1C(=O)Nc1c(Cl)cc(C(F)(C(F)(F)F)C(F)(F)F)cc1OC(F)F [Compound 86]
≥ 80%: pest or weed control at 200 ppm [1] | pest or weed control at 200 ppm [2] | pest or weed control at 12.5 ppm [3] | pest or weed control at 200 ppm [4] | pest or weed control at 200 ppm [5] | pest or weed control at 200 ppm [6] | pest or weed control at 200 ppm [7]

COc1c(NC(=O)c2ccc(C(F)(F)F)cc2)cccc1C(=O)Nc1c(Cl)cc(C(F)(C(F)(F)F)C(F)(F)F)cc1OC(F)F [Compound 89]
≥ 80%: pest or weed control at 200 ppm [1] | pest or weed control at 200 ppm [2] | pest or weed control at 12.5 ppm [3] | pest or weed control at 200 ppm [4] | pest or weed control at 200 ppm [5] | pest or weed control at 200 ppm [6] | pest or weed control at 200 ppm [7]

COc1c(NC(=O)c2ccc(F)cc2)cccc1C(=O)Nc1c(Cl)cc(C(F)(C(F)(F)F)C(F)(F)F)cc1OC(F)F [Compound 93]
≥ 80%: pest or weed control at 200 ppm [1] | pest or weed control at 200 ppm [2] | pest or weed control at 12.5 ppm [3] | pest or weed control at 200 ppm [4] | pest or weed control at 200 ppm [5] | pest or weed control at 200 ppm [6] | pest or weed control at 200 ppm [7]

COc1c(C(=O)C(C(C)=O)c2c(Br)cc(C(F)(C(F)(F)F)C(F)(F)F)cc2OC(F)F)cccc1N(C)C(=O)c1ccncc1 (stereo not drawn) [Compound 99]
≥ 80%: pest or weed control at 200 ppm [1] | pest or weed control at 200 ppm [2] | pest or weed control at 12.5 ppm [3] | pest or weed control at 200 ppm [4] | pest or weed control at 200 ppm [5] | pest or weed control at 200 ppm [6] | pest or weed control at 200 ppm [7]

Cc1cc(C(F)(C(F)(F)F)C(F)(F)F)cc(OC(F)F)c1NC(=O)c1cccc(NC(=O)c2ccncc2)c1F [Compound 100]
≥ 80%: pest or weed control at 200 ppm [1] | pest or weed control at 200 ppm [2] | pest or weed control at 12.5 ppm [3] | pest or weed control at 200 ppm [4] | pest or weed control at 200 ppm [5] | pest or weed control at 200 ppm [6] | pest or weed control at 200 ppm [7]

CCN(C(=O)c1ccncc1)c1cccc(C(=O)Nc2c(C)cc(C(F)(C(F)(F)F)C(F)(F)F)cc2OC(F)F)c1F [Compound 101]
≥ 80%: pest or weed control at 200 ppm [1] | pest or weed control at 200 ppm [2] | pest or weed control at 12.5 ppm [3] | pest or weed control at 200 ppm [4] | pest or weed control at 200 ppm [5] | pest or weed control at 200 ppm [6] | pest or weed control at 200 ppm [7]

COc1c(C(=O)Nc2c(Br)cc(C(F)(C(F)(F)F)C(F)(F)F)cc2OC(F)F)cccc1N(C)C(=O)c1ccncc1 [Compound 102]
≥ 80%: pest or weed control at 200 ppm [1] | pest or weed control at 200 ppm [2] | pest or weed control at 12.5 ppm [3] | pest or weed control at 200 ppm [4] | pest or weed control at 200 ppm [5] | pest or weed control at 200 ppm [6] | pest or weed control at 200 ppm [7]

CCN(C(=O)c1ccc([N+](=O)[O-])cc1)c1cccc(C(=O)Nc2c(Br)cc(C(F)(C(F)(F)F)C(F)(F)F)cc2OC(F)F)c1F [Compound 103]
≥ 80%: pest or weed control at 200 ppm [1] | pest or weed control at 200 ppm [2] | pest or weed control at 12.5 ppm [3] | pest or weed control at 200 ppm [4] | pest or weed control at 200 ppm [5] | pest or weed control at 200 ppm [6] | pest or weed control at 200 ppm [7]

CCN(C(=O)c1cccc(F)c1F)c1cccc(C(=O)Nc2c(Br)cc(C(F)(C(F)(F)F)C(F)(F)F)cc2OC(F)F)c1F [Compound 108]
≥ 80%: pest or weed control at 200 ppm [1] | pest or weed control at 200 ppm [2] | pest or weed control at 12.5 ppm [3] | pest or weed control at 200 ppm [4] | pest or weed control at 200 ppm [5] | pest or weed control at 200 ppm [6] | pest or weed control at 200 ppm [7]
